Assay: Primary eye irritation, protocol FHSLA 16 CFR 1500.42
Assay type: in vivo
Details: products tested at 25% actives
Procedure: Eye irritation is a major concern in the formulation of personal care products, particularly when working with quats. Primary eye irritation using the protocol outlined in FHSLA 16 CFR 1500.42 The products were tested at 25% actives.

| Structure (SMILES) | Primary eye irritation rating | Primary eye irritation score |
| --- | --- | --- |
| CCCCCCCCCCCCCCCC[N+](CC)(CC)CC.[Cl-] [Cetyltriethyl ammonium Chloride] | Severely Irritating | 115.0 |
| CCCCCCCCCCCCCCCC[N+](C)(C)C.[Cl-] [Cetyltrimethyl ammonium Chloride] | Severely Irritating | 106.0 |
| CCCCCCCCCCCCCCCCCC[N+](C)(C)Cc1ccccc1.[Cl-] [Stearalkonium Chloride] | Severely Irritating | 116.5 |

From US6461598B1, “Process for conditioning hair” (Biosil Research Institute Inc., priority 2000, dated 2002)
